Laboratory results as given in patent US20170119806A1, “[…] LACTONE DERIVATIVES AND METHODS OF MAKING AND USING THEREOF” (OHIO STATE INNOVATION FOUNDATION, priority 2014, published 2017).
Entries after “also recorded” stand apart in the source; their conditions may differ.

Assays:
[1] = tested on: STAT3, STAT4, STAT5, T-BET; assay: Immunoblotting of STATs and T-BET in NK cells; assay type: cell-based, human; details: 5 or 10 μM PL-C, 4 h, with IL-12 or IL-15; listed as PL-C
Method: (A) Purified human primary NK cells were treated with 10 μM PL-C in the presence of IL-2 (10 ng/mL) or IL-15 (100 ng/mL) for 12 hours. DMSO-treated cells served as vehicle controls. Cell pellets were harvested to extract total RNA for real-time RT-PCR to determine mRINA expression levels of IL-12Rβ1, IL-12Rβ2, IL-15Rα and IL-15β. Data are shown as means of 3 donors, * and ** indicate p<0.05 and p<0.01, respectively, which denote a statistical comparison between the two marked treatment groups. Error bars represent S.D. (B, C) Purified primary NK cells (B) or NKL cells (C) were treated with 5 or 10 μM PL-C in the presence of IL-12 (10 ng/mL) or IL-15 (100 ng/mL) for 4 hours. DMSO-treated cells served as vehicle controls. Cell pellets were harvested for subsequent immunoblotting of T-BET, phosphorylated STAT3 (p-STAT3), p-STAT4, p-STAT5, STAT3, STAT4, and STAT5. Data represent 1 out of 3 donors with similar data (B) and 3 independent experiments with similar results (C). Numbers underneath each lane represent quantification of detected protein by densitometry, after normalizing to β-actin.
Immunoblotting. Immunoblotting was performed as described previously (Yu J et al. Immunity 2006, 24, 575-590; Yu J et al. Blood 2010, 115, 274-281). […]

[2] = tested on: primary NK cells cocultured with ARH-77 target cells; assay: NK cell cytotoxicity assay (51Cr release); assay type: cell-based, human; details: 10 μM PL-C 8 h, then 4 h coculture, with IL-12 or IL-15; listed as PL-C
Method: (A) Human […] were treated with DMSO vehicle control or 10 μM PL-C for 18 hours in the presence of IL-12 (10 ng/mL) or IL-15 (100 ng/mL), as described in FIG. 37C. The cells were harvested for intracellular flow cytometry to determine the frequency of IFN-γ^+ cells in CD56^−CD3^+[…] or CD56^−CD3^+CD8^+T. Representative data from 1 out of 5 donors are shown. (B) Purified primary NK cells were treated with IL-12 (10 ng/mL) or IL-15 (100 ng/mL) with or without 10 μM PL-C for 8 hours and were sequentially co-cultured with […] labeled ARH-77 cells at various effector/target cell ratios for additional 4 hours. ^51Cr release was measured by a TopCount counter. Data shown are the means of 3 donors. […] Error bars represent S.D. (C) Purified primary NK cells were treated with 10 μM PL-C in the presence of IL-12 (10 ng/mL) (top) or IL-15 (100 ng/mL) (bottom) for 12 hours, and cell pellets were harvested for detecting granzyme A (GZMA), granzyme B (GZMB), perforin (PRF1) and Fas (Fasl) mRNA expression level by real-time RT-PCR. Data shown are the means of 6 donors. p>0.05, vehicle control versus PL-C in all panels. Error bars represent S.D.
Cytotoxicity assay. Cytotoxicity assay was performed as described previously (Yu J et al. Immunity 2006, 24, 575-590; Yu J et al. Blood 2010, 115, 274-281). […] The release of ^51Cr was counted on a TopCount counter (Canberra Packard, Meriden, Conn.). […]

COc1cc2c(OC3OCC(O)C(O)C3O)c3c(c(-c4ccc5c(c4)OCO5)c2cc1OC)C(=O)OC3 (centres unmarked) [Compound 4, Phyllanthusmin C]
total or phosphorylated STAT3, STAT4, STAT5 and T-BET in NK or NKL cells [1]: No upregulation; also recorded: no significant change of T-BET | NK cell cytotoxicity [2]: no statistically significant difference; also recorded: little or no; also recorded: did not activate NK cell cytotoxicity; also recorded: limited effect on NK cytotoxicity
